# Assay results reported in patent US11827644B2, “Pyrazine derivative and application thereof in inhibiting SHP2” (SUZHOU GENHOUSE PHARMACEUTICAL CO., LTD, priority 2019, dated 2023).
# Target: SHP2 (Homo sapiens (Human), UniProt Q06124)
# Assay: SHP2 allosteric inhibition experiment (DiFMUP fluorescence)
# Assay type: biochemical
# Conditions: 0.5 nM SHP2 activated with 0.5 μM peptide IRS1_pY1172(dPEG8)pY1222; substrate DiFMUP; 25° C.; read-out: IC50 values of compounds inhibiting SHP2
# From the text: SHP2 allosteric inhibition experiment
# SHP2 is allosterically activated through the activation of a bis-tyrosyl-phosphorylated peptide and Src Homology 2 (SH2) domains. The activation steps followed result in the release of the auto-inhibition interface, which in turn activates the SHP2 protein tyrosine phosphatase (PTP) and can be used for substrate recognition and reaction catalysis. The SHP2 catalytic activity is monitored by a rapid fluorescent mode with the alternative substrate DiFMUP.
# The phosphatase reaction was conducted in 384-well black polystyrene plates (Corning, Cat #3575) with flat bottom, low edge and non-binding surface at room temperature and 25 μl final volume of the following buffer condition: 60 mM HEPES, pH 7.2, 75 mM NaCl, 75 mM KCl, 1 mM EDTA, 0.05% P-20, 5 mM DTT.
# The following experiments were conducted to monitor the SHP2 inhibition by the compounds (at concentrations of 0.0003-100 μM) in this invention:
# Wherein, incubate 0.5 nM SHP2 with 0.5 μM peptide IRS1_pY1172 (dPEG8) pY1222 (sequence: H2N-LN (pY) IDLDLV (dPEG8) LST (pY) ASINFQK-amide) (SEQ ID NO: 1) (WO2016/203406A1). After incubation at 25° C. for 30-60 minutes, the alternative substrate DiFMUP (Invitrogen, cat #D6567) was added to the reaction and incubated at 25° C. for 30 minutes. The reaction was then carefully […] by adding 5 μL of a 160 μM bpV (Phen) solution (Enzo Life Sciences cat #ALX-270-204). The fluorescence signal was monitored using a microplate reader (VARIOSKAN LUX, Thermo) with excitation and emission wavelengths of 340 nm and 450 nm, respectively. The inhibitory dose-response curve is analyzed using a standardized IC50 regression curve based on control-based normalization.
# Sequence of SHP2 (Q06124 whole entry): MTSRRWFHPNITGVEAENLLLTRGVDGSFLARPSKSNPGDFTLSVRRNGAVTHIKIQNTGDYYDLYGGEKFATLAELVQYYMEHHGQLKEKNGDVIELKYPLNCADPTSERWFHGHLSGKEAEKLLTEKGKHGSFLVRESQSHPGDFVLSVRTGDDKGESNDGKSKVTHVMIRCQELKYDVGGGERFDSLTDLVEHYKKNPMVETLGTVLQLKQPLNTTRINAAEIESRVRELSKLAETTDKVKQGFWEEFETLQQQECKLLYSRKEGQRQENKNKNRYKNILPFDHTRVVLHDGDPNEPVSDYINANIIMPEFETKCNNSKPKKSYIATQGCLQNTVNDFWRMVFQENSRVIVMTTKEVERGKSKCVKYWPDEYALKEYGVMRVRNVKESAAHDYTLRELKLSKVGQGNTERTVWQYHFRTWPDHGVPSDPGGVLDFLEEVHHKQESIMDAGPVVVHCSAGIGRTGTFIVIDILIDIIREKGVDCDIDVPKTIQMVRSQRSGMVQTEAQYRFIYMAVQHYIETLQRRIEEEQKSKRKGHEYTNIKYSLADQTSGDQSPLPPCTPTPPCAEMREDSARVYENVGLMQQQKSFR
row,Compound,IC50 [nM]
1,C[C@@H]1OCC2(CCN(c3cnc(Sc4cccc(N5CCCC5=O)c4Cl)cn3)CC2)[C@@H]1N [Example 1],7.69
2,C[C@@H]1OCC2(CCN(c3cnc(Sc4cccc(Nc5cnccn5)c4Cl)cn3)CC2)[C@@H]1N [Example 2],2.71
3,C[C@@H]1OCC2(CCN(c3cnc(Sc4cccc(-c5ncco5)c4Cl)cn3)CC2)[C@@H]1N [Example 3],1.26
4,C[C@@H]1OCC2(CCN(c3cnc(Sc4cccc(N5CCCC5)c4Cl)cn3)CC2)[C@@H]1N [Example 4],7.88
5,C[C@@H]1OCC2(CCN(c3cnc(Sc4cccc(-c5ccn(C)n5)c4Cl)cn3)CC2)[C@@H]1N [Example 5],2.12
6,C[C@@H]1OCC2(CCN(c3cnc(Sc4cccc(-c5cnccn5)c4Cl)cn3)CC2)[C@@H]1N [Example 6],1.31
7,C[C@@H]1OCC2(CCN(c3cnc(Sc4ccnc(-c5cnccn5)c4Cl)cn3)CC2)[C@@H]1N [Example 7],41.6
8,C[C@@H]1OCC2(CCN(c3cnc(Sc4cccc(-c5cnccn5)c4Cl)c(N)n3)CC2)[C@@H]1N [Example 8],5.12
9,C[C@@H]1OCC2(CCN(c3cnc(Sc4cccc(-c5ncccn5)c4Cl)cn3)CC2)[C@@H]1N [Example 9],6.61
10,C[C@@H]1OCC2(CCN(c3cnc(Sc4cccc(NC(=O)c5cccc(F)c5Cl)c4Cl)cn3)CC2)[C@@H]1N [Example 10],5.1
11,C[C@@H]1OCC2(CCN(c3cnc(Sc4cccc(NC(=O)c5c(O)nc6n(c5=O)CCCC6)c4Cl)cn3)CC2)[C@@H]1N [Example 11],0.31
12,C[C@@H]1OCC2(CCN(c3cnc(Sc4cccc(NC(=O)c5ccn(C)n5)c4Cl)cn3)CC2)[C@@H]1N [Example 12],3.59
13,C[C@@H]1OCC2(CCN(c3cnc(Sc4cccc(NC(=O)c5cc(F)c(F)cc5Cl)c4Cl)cn3)CC2)[C@@H]1N [Example 13],5.88
14,C[C@@H]1OCC2(CCN(c3cnc(Sc4cccc(-c5nc6ccccc6o5)c4Cl)cn3)CC2)[C@@H]1N [Example 14],9.24
15,C[C@@H]1OCC2(CCN(c3cnc(Sc4cccc(-c5nc(C#N)co5)c4Cl)cn3)CC2)[C@@H]1N [Example 15],4.06
16,Cc1ncsc1-c1cccc(Sc2cnc(N3CCC4(CC3)CO[C@@H](C)[C@H]4N)cn2)c1Cl [Example 16],4.9
17,C[C@@H]1OCC2(CCN(c3cnc(Sc4cccc(-c5nc(C#N)cs5)c4Cl)cn3)CC2)[C@@H]1N [Example 17],4.35
18,Cc1csc(-c2cccc(Sc3cnc(N4CCC5(CC4)CO[C@@H](C)[C@H]5N)cn3)c2Cl)n1 [Example 18],7.93
19,C[C@@H]1OCC2(CCN(c3cnc(Sc4cccc(-c5nc(C(N)=O)co5)c4Cl)cn3)CC2)[C@@H]1N [Example 19],1.95
20,C[C@@H]1OCC2(CCN(c3cnc(Sc4cccc(-c5nc(C(=O)O)co5)c4Cl)cn3)CC2)[C@@H]1N [Example 20],1.27
21,C[C@@H]1OCC2(CCN(c3cnc(Sc4cccc(-c5ccc(C#N)o5)c4Cl)cn3)CC2)[C@@H]1N [Example 21],6.01
22,C[C@@H]1OCC2(CCN(c3cnc(Sc4cccc(NC(=O)c5ccccc5C(=O)O)c4Cl)cn3)CC2)[C@@H]1N [Example 22],1.72

row,Compound,IC50 [nM]
1,C[C@@H]1OCC2(CCN(c3cnc(Sc4cccc(-c5cnn6cccnc56)c4Cl)cn3)CC2)[C@@H]1N [Example 23],3.28
2,Cc1coc(-c2cccc(Sc3cnc(N4CCC5(CC4)CO[C@@H](C)[C@H]5N)cn3)c2Cl)n1 [Example 24],2.41
3,CCn1ccc(-c2cccc(Sc3cnc(N4CCC5(CC4)CO[C@@H](C)[C@H]5N)cn3)c2Cl)n1 [Example 25],1.74
4,C[C@@H]1OCC2(CCN(c3cnc(Sc4cccc(-c5cn6ccnc6cn5)c4Cl)cn3)CC2)[C@@H]1N [Example 26],6.33
5,C[C@@H]1OCC2(CCN(c3cnc(Sc4cccc(-c5nc(C#N)co5)c4Cl)cn3)CC2)[C@@H]1N [Example 27],3.51
6,C[C@@H]1OCC2(CCN(c3cnc(Sc4cccc(-c5cccs5)c4Cl)cn3)CC2)[C@@H]1N [Example 28],9.4
7,C[C@@H]1OCC2(CCN(c3cnc(Sc4cccc(-c5cnc6ccnn6c5)c4Cl)cn3)CC2)[C@@H]1N [Example 29],6.62
8,C[C@@H]1OCC2(CCN(c3cnc(Sc4cccc(NC(=O)c5cc6n(n5)CCCC6)c4Cl)cn3)CC2)[C@@H]1N [Example 30],6.45
9,C[C@@H]1OCC2(CCN(c3cnc(Sc4cccc(N5C(=O)C6CC6C5=O)c4Cl)cn3)CC2)[C@@H]1N (stereo partly shown) [Example 31],7.91
10,C[C@@H]1OCC2(CCN(c3cnc(Sc4cccc(-c5ccn6nccc6n5)c4Cl)cn3)CC2)[C@@H]1N [Example 32],2.82
11,C[C@@H]1OCC2(CCN(c3cnc(Sc4cccc(-c5nccs5)c4Cl)cn3)CC2)[C@@H]1N [Example 34],5.34
12,C[C@@H]1OCC2(CCN(c3cnc(Sc4cccc(NC(=O)c5ncccn5)c4Cl)cn3)CC2)[C@@H]1N [Example 35],2.91
13,C[C@@H]1OCC2(CCN(c3cnc(Sc4cccc(NC(=O)c5c(O)nc6ccccn6c5=O)c4Cl)cn3)CC2)[C@@H]1N [Example 36],6.42
14,C[C@@H]1OCC2(CCN(c3cnc(Sc4cccc(NC(=O)c5ccccc5O)c4Cl)cn3)CC2)[C@@H]1N [Example 37],9.01
15,C[C@@H]1OCC2(CCN(c3cnc(Sc4cccc(NC(=O)c5cc(Cl)ccc5O)c4Cl)cn3)CC2)[C@@H]1N [Example 38],9.41
16,C[C@@H]1OCC2(CCN(c3cnc(Sc4cccc(NC(=O)c5cc6n(n5)CCC6)c4Cl)cn3)CC2)[C@@H]1N [Example 39],8.3
17,CCn1cc(-c2cccc(Sc3cnc(N4CCC5(CC4)CO[C@@H](C)[C@H]5N)cn3)c2Cl)cn1 [Example 40],4.4
18,C[C@@H]1OCC2(CCN(c3cnc(Sc4cccc(-c5cnc6[nH]ccc6n5)c4Cl)cn3)CC2)[C@@H]1N [Example 41],6.2
19,C[C@@H]1OCC2(CCN(c3cnc(Sc4cccc(-c5cnn(CCO)c5)c4Cl)cn3)CC2)[C@@H]1N [Example 42],3.4
20,C[C@@H]1OCC2(CCN(c3cnc(Sc4cccc(Nc5ncccn5)c4Cl)cn3)CC2)[C@@H]1N [Example 43],7.5
21,C[C@@H]1OCC2(CCN(c3cnc(Sc4cccc(Nc5cnn(C)c5)c4Cl)cn3)CC2)[C@@H]1N [Example 44],7.3
